The source of these data is US20230189807A1, “COMPOSITIONS HAVING PESTICIDAL UTILITY AND PROCESSES RELATED THERETO” (priority 2020, published 2023).

Where two headings read alike, the source gives them in different places.

Holding throughout (assay type): in vivo
Experiment [1] has as its system Neotropical Brown Stink Bug (Euschistus heros, EUSCHE). The experiment in a line: Bioassay 5: Neotropical Brown Stink Bug, soaked green bean segments. The following applies: 72 h; for pest or weed control at 0.000156 % / pest or weed control at 0.0025 %: read-out: Average % Control AI; for pest or weed control at 0.000625 %: AI alone 0.000625 % (w/v). The protocol:
Stock solutions were prepared with Formula One as well as for each of the active ingredients individually. Test solutions were prepared from the stock solutions. Test solutions were prepared containing Formula One, the individual active ingredients, and mixtures of Formula One with each of the active ingredients. The test solution for Formula One was prepared by adding 500 μL of the stock solution to a 25 mL glass vial, then adding 500 μL of acetone, followed by the addition of 9 mL water with 0.025% Tween® 20 to create a 0.04% (w/v) solution. The individual active ingredients were prepared by adding 500 μL of stock solution to a 25 mL glass vial, then adding 500 μL of acetone, followed by the addition of 9 mL water with 0.025% Tween® 20 to create a 0.005% (w/v) solution. The test solutions containing mixtures of Formula One and the individual active ingredients were prepared by adding 500 μL of the active ingredient stock solution to a 25 mL glass vial, followed by 500 μL of the Formula One stock solution, then by the addition of 9 mL water with 0.025% Tween® 20 to create a test solution containing 0.04% (w/v) Formula One and 0.005% (w/v) of the active ingredient. Each test solution was serially diluted to create desired doses of test solutions (0.01% (w/v), 0.0025% (w/v), 0.000625% (w/v), 0.000156% (w/v), and 0.000039% (w/v)). In test solutions containing mixtures of Formula One and the active ingredients, the active ingredients were diluted as described above, but the Concentration of Formula One was held constant (0.04% (w/v)).
The test solutions that were tested against BSB were similar to those described above for WTPB. Fresh green beans were cut into segments approximately 1.5 inches long. Four bean segments were added to each test solution and soaked for approximately 15 minutes. After soaking, a single bean fragment was removed and placed into a single well of a 32-well rearing tray (Frontier Agricultural Sciences™), on top of a round filter paper disc. A reference treatment (solvent check) was treated with the diluent only. Each treatment was replicated four times and the test treatments were held at approximately 26° C. and ambient relative humidity (RH) prior to grading. Bean segments were allowed to air dry for ˜30 minutes. Three BSB nymphs were added to and contained in each well with a clear perforated adhesive lid. The total number of living BSB nymphs was recorded 3 days after application. Scoring was based off the total number of living nymphs out of all four replicates. Percent control was measured using Abbott's correction formula (W. S. Abbott, J. Econ. Entomol. 18 (1925), pp. 265-267) as follows:
(§1) Corrected % Control=(1−(Y/X))*100
where X=No. of live nymphs on solvent check and Y=No. of live nymphs on treated bean segments. In Table B5 the “Expected % Control” was calculated using the method described in Colby S. R., Weeds, 1967, 15, 20-22. Bioassay 6: Beet Armyworm (Spodoptera exigua, LAPHEG) (BAW), and Diamondback Moth (Plutella xylostella, PLUTMA) (DBM).

The subject of experiment [2] is Green Peach Aphid (Myzus persicae, MYZUPE). The experiment in a line: Bioassay 1: Green Peach Aphid, cabbage seedling foliar spray. The following applies: 3 days after treatment. The protocol: The stock solutions were prepared with Formula One as well as for each of the active ingredients individually. Test solutions were prepared from the stock solutions. Test solutions were prepared containing Formula One, the individual active ingredients, and mixtures of Formula One with each of the active ingredients. The test solutions for Formula One and the individual active ingredients were prepared by adding 750 microliters (μL) of stock solution to a 25 mL glass vial, then adding 750 μL of 1:1 acetone:methanol solvent, followed by the addition of 13.5 mL water with 0.025% Tween® 20 to create a 0.0005% (weight/volume (w/v)) solution. The test solutions containing mixtures of Formula One and the individual active ingredients were prepared by adding 750 μL of the active ingredient stock solution to a 25 mL glass vial, followed by 750 μL of the Formula One stock solution, then by the addition of 13.5 mL water with 0.025% Tween® 20 to create a test solution containing 0.0005% (w/v) Formula One and 0.0005% (w/v) of the active ingredient. Each test solution was serially diluted to create desired doses of test solutions (0.0005% (w/v), 0.000125% (w/v), 0.00003125% (w/v), 0.0000078% (w/v), 0.00000195% (w/v), and 0.0000005% (w/v)).
The test solutions were tested against GPA using the following procedure: Cabbage seedlings, grown in 3 inch pots with 2-3 small (3-5 centimeter (cm)) true leaves, were used as test substrate. The seedlings were infested with 20-50 GPA (wingless adult and nymph stages) one day prior to chemical application. Four pots with individual seedlings were used for each treatment. A hand-held aspirator-type sprayer was used for spraying a solution to both sides of […] leaves until runoff. Reference plants (solvent check) were sprayed with the diluent only (0.025% Tween® 20 and 10% acetone:methanol (1:1) in water). Treated plants were held in a holding room for three days at approximately 25° C. and ambient relative humidity (RH about 20% to about 45%) prior to grading. Evaluation was conducted by counting the number of live aphids per plant under a microscope three days after treatment. Percent control was measured using Abbott's correction formula (W. S. Abbott, J. Econ. Entomol. 18 (1925), pp. 265-267) as follows:
as §1
where X=No. of live aphids on solvent check plants and Y=No. of live aphids on treated plants. In Table B1 the “Expected % Control” was calculated using the method described in Colby S. R., Weeds, 1967, 15, 20-22. Bioassay 2: Sweet Potato Whitefly (Bemisia tabaci, BEMITA) (“SPW”).

Experiment [3] deals with Western Flower Thrips (Frankliniella occidentalis, FRANOC). The experiment in a line: Bioassay 3: Western Flower Thrips, cotton leaf disc dip. The conditions noted are these: foliar, 72 h; for pest or weed control at 0.0003125 %: AI alone 0.0003125 % (w/v); for pest or weed control at 0.005 %: AI alone 0.005 % (w/v); for pest or weed control at 7.8e-05 %: read-out: Average % Control AI. The protocol:
Stock solutions of Formula One and various active ingredients were prepared initially at a concentration of 8 mg/mL for Formula One and 1 mg/mL for the active ingredients, respectively, using acetone as a diluent. Stock solutions were prepared with Formula One as well as for each of the active ingredients individually. Test solutions were prepared from the stock solutions. Test solutions were prepared containing Formula One, the individual active ingredients, and mixtures of Formula One with each of the active ingredients. The test solution for Formula One was prepared by adding 500 μL of the stock solution to a 25 mL glass vial, then adding 500 μL of acetone, followed by the addition of 9 mL water with 0.025% Tween® 20 to create a 0.04% (w/v) solution. The test solutions of the individual active ingredients were prepared by adding 500 μL of stock solution to a 25 mL glass vial, then adding 500 μL of acetone, followed by the addition of 9 mL water with 0.025% Tween® 20 to create a 0.005% (w/v) solution. The test solutions containing mixtures of Formula One and the individual active ingredients were prepared by adding 500 μL of the active ingredient stock solution to a 25 mL glass vial, followed by 500 μL of the Formula One stock solution, then by the addition of 9 mL water with 0.025% Tween® 20 to create a test solution containing 0.04% (w/v) Formula One and 0.005% (w/v) of the active ingredient. Each test solution was serially diluted to create desired doses of test solutions (0.005% (w/v), 0.00125% (w/v), 0.0003125% (w/v), 0.000078% (w/v), and 0.0000195% (w/v)). In test solutions containing mixtures of Formula One and the active ingredients, the active ingredients were diluted as described above, but the Concentration of Formula One was held constant (0.04% (w/v)).
The test solutions were tested against WFT using the following procedure: Leaf discs (2.7 cm in diameter) were cut from the true leaves of cotton plants. Leaf discs were dipped into the test solutions and shaken to ensure complete coverage of the leaf disc and then placed in Millipore® PetriSlides containing a filter paper disc. Treated leaf discs were air dried for approximately 1 hour. Each leaf disc was infested with 5 WFT (9-10 day old nymphs) by placement on each leaf disc, and the PetriSlides were capped to prevent escape. Each treatment was replicated three times and the test treatments were held at approximately 26° C. and ambient relative humidity (RH) prior to grading. Reference discs (solvent check) were treated with the diluent only. Evaluation was conducted by counting the number of live WFT under magnification 3 days after treatment. Percent control was measured using Abbott's correction formula (W. S. Abbott, J. Econ. Entomol. 18 (1925), pp. 265-267) as follows:
as §1
where X=No. of live nymphs on solvent check leaf discs and Y=No. of live nymphs on treated leaf discs. In Table B3 the “Expected % Control” was calculated using the method described in Colby S. R., Weeds, 1967, 15, 20-22. Bioassay 4: Western Tarnished Plant Bug (Lygus hesperus, LYGUHE) (“WTPB”).

Setting [4] is: AI alone 0.000156 % (w/v), soaked bean segments, 3 days after application.
[5] abbreviates: cotton leaf disc dip, 3 days after treatment.
Where [6] appears, read: soaked bean segments, 3 days after application.
[7] abbreviates: AI alone 0.0025 % (w/v), soaked bean segments, 3 days after application.
The mark [8] stands for this setting: AI alone 0.000078 % (w/v), cotton leaf disc dip, 3 days after treatment.

In the case of `Cc1c(COC(=O)[C@@H]2[C@H](/C=C(\Cl)C(F)(F)F)C2(C)C)cccc1-c1ccccc1` (racemic) [Bifenthrin], in experiment [1] (setting [4]), the pest or weed control at 0.000156 % was 30%. Also, the “Average % Control A1” value in experiment [2] (AI alone 0.78x10^-5 % (w/v)) is 52%. In experiment [3] (setting [5]), `CNC(=O)O/N=C(\SC)C(=O)N(C)C` [Oxamyl] returned a pest or weed control at 0.0003125 % of 0%. In the case of Emamectin Benzoate, the “Average % Control A1” value in experiment [2] (AI alone 3.125x10^-5 % (w/v)) is recorded as 21%. Turning to `CNC(=O)c1cc(Cl)cc(C)c1NC(=O)c1cc(Br)nn1-c1ncccc1Cl` [Chlorantraniliprole], the pest or weed control at 0.005 % in experiment [3] (setting [5]) was 7%. For the compound `O=[N+]([O-])NC1=NCCN1Cc1ccc(Cl)nc1` [Imidacloprid], the pest or weed control at 0.000625 % in experiment [1] (setting [6]) was determined as 17%. The compound further gave a pest or weed control at 0.0003125 % in experiment [3] (setting [5]) of 0%.

Turning to `CC(c1ccc(C(F)(F)F)nc1)S(C)(=O)=NC#N` (stereo not shown) [Sulfoxaflor], in experiment [1] (setting [7]), the pest or weed control at 0.0025 % came out at 58%.

`CC[S+]([O-])c1c(C#N)nn(-c2c(Cl)cc(C(F)(F)F)cc2Cl)c1N` (stereo not shown) [Ethiprole] showed a pest or weed control at 3.91e-05 % in experiment [1] (AI alone 0.0000391 % (w/v), soaked bean segments, 3 days after application) of 0%. Also, the pest or weed control at 0.005 % in experiment [3] (setting [5]) was found to be 0%. Moreover, the “Average % Control A1” value in experiment [2] (AI alone 3.125x10^-5 % (w/v)) worked out at 0%. Regarding `CN1COCN(Cc2cnc(Cl)s2)/C1=N\[N+](=O)[O-]` [Thiamethoxam], the pest or weed control at 0.000156 % in experiment [1] (setting [4]) was determined as 17%. Moreover, the pest or weed control at 7.8e-05 % in experiment [3] (setting [8]) stood at 7%.

Regarding `COP(=O)(NC(C)=O)SC` (stereo not shown) [Acephate], the pest or weed control at 0.0025 % in experiment [1] was 0%. Further, the pest or weed control at 7.8e-05 % in experiment [3] is 5%. Compound `C/C(=N\C#N)N(C)Cc1ccc(Cl)nc1` [Acetamiprid] showed a pest or weed control at 0.0003125 % in experiment [3] (setting [5]) of 13%. In addition, the “Average % Control A1” value in experiment [2] (AI alone 0.78x10^-5 % (w/v)) came to 24%. As for `CON=CNC(=O)c1ccc(C2=NOC(c3cc(Cl)cc(Cl)c3)(C(F)(F)F)C2)cc1C` (stereo not shown) [Fluxametamide], the “Average % Control A1” value in experiment [2] (AI alone 12.5x10^-5 % (w/v)) is listed as 0%. Take `CCOCn1c(-c2ccc(Cl)cc2)c(C#N)c(Br)c1C(F)(F)F` [Chlorfenapyr]: in experiment [1] (setting [7]), the pest or weed control at 0.0025 % worked out at 8%. In experiment [3] (setting [5]), this compound yielded a pest or weed control at 0.005 % of 57%. With `COc1cccc(C(=O)NN(C(=O)c2cc(C)cc(C)c2)C(C)(C)C)c1C` [Methoxyfenozide], the “Average % Control A1” value in experiment [2] (AI alone 0.195x10^-5 % (w/v)) is given as 5%. For the compound `CCOC(=O)OC1=C(c2cc(C)ccc2C)C(=O)N[C@]12CC[C@@H](OC)CC2` [Spirotetramat], the pest or weed control at 7.8e-05 % in experiment [3] (setting [8]) is 7%. Further, in experiment [2] (AI alone 0.05x10^-5 % (w/v)), the “Average % Control A1” value turned out to be 15%. The compound `CC(COc1ccc(Oc2ccccc2)cc1)Oc1ccccn1` (stereo not shown) [Pyriproxyfen] returned a pest or weed control at 0.00125 % in experiment [3] (AI alone 0.00125 % (w/v), cotton leaf disc dip, 3 days after treatment) of 17%. Regarding `CN/C(=N/CC1CCOC1)N[N+](=O)[O-]` (stereo not shown) [Dinotefuran], in experiment [1], the pest or weed control at 0.000156 % was 17%. As to `CC1(C)[C@H](C(=O)O[C@H](C#N)c2cccc(Oc3ccccc3)c2)[C@@H]1/C=C(\Cl)C(F)(F)F` (racemic) [Lambda Cyhalothrin], in experiment [1] (setting [6]), the pest or weed control at 0.000625 % came to 8%. The compound further registered a pest or weed control at 0.0003125 % in experiment [3] (setting [5]) of 7%. For the same compound, the “Average % Control A1” value in experiment [2] (AI alone 0.78x10^-5 % (w/v)) amounted to 40%.
